Data published in publication PMC7889660, “Complex precursor structures of cytolytic cupiennins identified in spider venom gland transcriptomes” (Scientific Reports, 2021).
Like-named read-outs stand apart in the source and are kept apart here. Ends that are not written are not given here.

Tests used:
Drosophila melanogaster [1] = experiment: Insecticidal bioassay with Drosophila flies, lethal dose (LD50) 24 h after injection; assay type: in vivo; details: for LD50: synthetic C-terminally amidated peptide in 0.1 M ammonium acetate pH 6.1, 0.05 µl injected intrathoracically into flight muscles of female flies (1- to 7-days old), 50% of flies die after 24 h, minimum five doses, each n = 20, PRISM Vers. 6.07
Procedure: The insecticidal activity of different cupiennins was investigated in a bioassay with Drosophila melanogaster and the lethal dose, where 50% of the insects die of intoxication after 24 h of injection, calculated. […] The shorter LPs such as Cu 3a, d, and Cu 4a, were with 12.4–38.5 pmol/mg fly less toxic.
Cupiennins 3a, 3b, 4a, 6a, 6b, 6d, 7b, 8, and the two-chain CsTx-16a1b1, and CsTx-16c1d1 were synthesized (all C-terminally amidated) by GeneCust, (Dulange, Luxembourg). Bioassays using Drosophila flies were performed as described elsewhere. Briefly, all peptides were dissolved in 0.1 M ammonium acetate, pH 6.1 and 0.05 µl injected intrathoracically into the flight muscles of female flies (1- to 7-days old). For each peptide, in minimum five different peptide doses were injection into the flies (each n = 20) and also a negative control with only buffer was injected (n = 10). Calculations of the lethal dose (LD50) were done with GraphPad PRISM Vers. 6.07 (GraphPad Software, San Diego, CA, USA).

Drosophila melanogaster [2] = details: Drosophila flies, 0.05 µl injected, 50% of flies die after 24 h; cited from earlier work
Procedure: Table 3 Insecticidal activities of selected cupiennins, CsTx-16 variants, neurotoxins CsTx-1, CsTx-9, and CsTx-13, and cyto-insectotoxin CIT1a. Different concentrations of peptides were dissolved in 0.1 M ammonium acetate, pH 6.1, and 0.05 µl was injected into Drosophila flies. The lethal dose (LD50, pmol/mg fly), where 50% of the flies die after 24 h, was calculated with PRISM Vers. 6.07. * Data | column: LD50 / (pmol/mg fly)

Row | Substance | Toxicity ranking among tested cupiennins (Drosophila melanogaster [1]; Drosophila, LD50 after 24 h) | LD50 (Drosophila melanogaster [1]) [pmol/mg fly] | LD50 (Drosophila melanogaster [2]) [pmol/mg fly]
1 | Cu 8: Cu 8 family linear peptide of 20 residues, transcript B, synthesized by GeneCust (IWRMPKKVLKLLAAFRGKEG-NH2) | lowest toxicity | 159.7 | 
2 | Cu 1b: cytolytic linear cationic peptide, Cu 1 family, transcript C1 (GFGSLFKFLAKKVAKTVAKQAAKQGAKYIANKQMEG-NH2) |  |  | 4.7
3 | Cu 3a: Cu 3 family linear peptide, synthesized by GeneCust (GFGSLFKFLGKKLLKTVAKQAAKKQMEG-NH2) |  | 18.7 | 
4 | Cu 6d: Cu 6 family linear peptide, synthesized by GeneCust (FINTIKLLIEKYREWKNKQSSG-NH2) |  | 23.2 | 
